Experiments:
mouse liver mitochondria = test: Cytochrome c release from mouse liver mitochondria; assay type: biochemical; conditions: no tBID, also at 10-fold higher concentrations
Protocol: (§1) Mitochondria were purified from liver and FL5.12cells as previously described (Letai et al., 2002). Mitochondria were purified from leukemia cells and 2B4 cells as previously described for FL5.12 cells. Mitochondria were incubated with treatments for 45 (mouse liver mitochondria) or 35 minutes (FL5.12, 2B4, and leukemic mitochondria). Release of cytochrome c was determined by a comparison of cytochrome c in the pellet and supernatant following treatment, quantitated by ELISA (R&D systems). When results of multiple experiments were averaged, results from solvent-only (DMSO) treatments values were subtracted from each, so that 0 release reflects that observed in solvent-only treatments.
To test if selective binding corresponded to ability of individual BH3 domains to selectively antagonize antiapoptotic function, a purified mitochondrial system was constructed in which the critical apoptosis decision making molecular machinery was reconstituted. […] The multidomain proapoptotic function was provided by the BAK which resides in mouse liver Mitochondria; mouse liver mitochondria contain no detectable BAX protein (Letai et al., 2002). The dominant antiapoptotic function was provided by one of the five different recombinant antiapoptotic proteins used in the binding assays. BH3 peptides provided the sensitizer function.
Furthermore, when the panel of sensitizer BH3 peptides was tested in the presence of the antiapoptotic protein BCL-XL, there was still no cytochrome c release, formally ruling out the possibility that the BH3 peptides were somehow directly converting antiapoptotic proteins to a proapoptotic function (FIG. 2). To induce MOMP and cytochrome c release, there appears to be an absolute requirement for an activator function, here provided by the tBID protein.

GST-BCL-2 = biological target: T1, GST-BCL-2 (Homo sapiens, UniProt P10415); test: BIM BH3 displacement by fluorescence polarization; assay type: binding; conditions: 25 nM fluorescein-linked BIM BH3, 0.5 uM GST-BCL-2
T1 construct: In each case, the C-terminus transmembrane domain was truncated to maintain solubility in aqueous solution; made in house; host or cells: bacteria
T1 sequence (P10415 1-218 limits assumed): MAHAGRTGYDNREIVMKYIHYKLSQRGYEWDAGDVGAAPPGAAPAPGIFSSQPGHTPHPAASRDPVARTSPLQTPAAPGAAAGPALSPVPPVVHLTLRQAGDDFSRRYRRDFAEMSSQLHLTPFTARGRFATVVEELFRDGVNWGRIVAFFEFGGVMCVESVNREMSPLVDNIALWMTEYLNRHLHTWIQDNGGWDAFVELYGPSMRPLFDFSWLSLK
Protocol: (§2) Binding assays were performed using fluorescence polarization as previously described (Letai et al., 2002). A minimum of three independent experiments were used to determine each dissociation constant.
(§3) As one test of this hypothesis, the ability of sensitizer peptides to displace tBID from antiapoptotic protein Bcl-w was examined utilizing a GST-pulldown assay. Proteins bound to glutathioneagarose beads were eluted with glutathione and analyzed by Western blot. In FIG. 3A, tBID is displaced from BC1-w by sensitizer BH3 peptides in a pattern that replicates the pattern in FIG. 1D. […] These experiments support the ability of sensitizer BH3 peptides to displace activators from the antiapoptotic binding cleft.

BAX = BAX oligomerization / activation in mitochondria of IL-3 starved FL5.12-BCL-2 cells; assay type: biochemical, murine; conditions: peptides 30 uM, ABT-737 10 uM, 35 minutes
Protocol: Mitochondria were isolated from wt FL5.12 cells and FL5.12-BCL-2 cells in the presence of IL-3, and from FL5.12-BCL-2 cells following 24 hours of IL-3 deprivation. […] Mitochondrial pellets were subjected to chemical crosslinking as previously described (Letai et al., 2002).
This model predicts that BCL-2 acts upstream of BAX activation by intercepting activator BH3 molecules. To test this prediction, in FIG. 6E, immunoprecipitation was performed with an antibody that recognizes only the activated form of BAX which exposes an N-terminus epitope (Desagher ct al., 1999; Hsu and You le, 1997). wt or BCL-2 expressing FL5.12 cells were exposed to IL-3 withdrawal as indicated.

leukemic mitochondria = test: Cytochrome c release from BCL-2 dependent leukemia mitochondria; assay type: biochemical, mouse
Protocol: as §1
Leukemia prone mice were generated as previously described (Letai, 2004). Mouse experimental protocols conform to the relevant regulatory standards and were approved by the Dana-Farber Cancer Institute Animal Care and Use Committee.
Previous results have described a mouse acute lymphocytic leukemia model in which c-myc is constitutively expressed and human BCL-2 is repressibly expressed. In this model, when BCL-2 transgene expression is eliminated by administration of doxycycline, the leukemic cells undergo apoptosis, resulting in rapid resolution of the leukemia (Letai, 2004). This provides an ideal in vivo model of a BCL-2 dependent cancer. It was hypothesized that dependence on BCL-2 was due to a similar mechanism to that of the IL-3 deprived FL5.12-BCL-2 cells—that is, a death signal was being initiated and carried by an activator BH3 molecule, but BCL-2 was binding it and preventing its interaction with multidomain proapoptotic proteins.
Mitochondria were isolated from leukemia cells and exposed to sensitizer BH3 peptides. Subsequently, cytochrome c release was measured. As an internal control, mitochondria were isolated from liver from the leukemic mice in parallel (FIG. 8A).

CLL mitochondria = test: Cytochrome c release from CLL mitochondria; assay type: biochemical, human; conditions: peptides or compounds 100 μM
Protocol: Alternatively, mitochondria were purified from freshly isolated CLL cells and cell lines by mechanical disruption followed by differential centrifugation, as previously described (Letai et al., 2002). Mitochondrial suspensions were made at 0.5 mg protein/ml, except for the case of ABT-737 and negative control enantiomer treatments, where 0.1 mg/ml was used. Release of cytochrome c was determined by a comparison of cytochrome c in the pellet and supernatant quantitated by ELISA (R&D systems).
CLL mitochondria were incubated with BH3 peptides as well as ABT-737 and negative control enantiomer (FIG. 14). […] This pattern is diagnostic of mitochondrial BCL-2 dependence. […] Since the BH3 peptides in the sensitizer panel lack the ability to directly activate BAX and BAK, these experiments also implicated the presence of an activator molecule constitutively sequestered by BCL-2 in CLL.

SU-DHL6 = test: BH3 profiling, cytochrome c release from lymphoma mitochondria; assay type: biochemical; conditions: SU-DHL 6
Text: (§4) BH3 profiling allows for the prediction of response of cancer cells to anti-cancer therapeutics. For the purposes of this application, therapeutics can be divided into those that target anti-apoptotic BCL-2 proteins, and conventional agents. As a model test system, four lymphoma cell lines SU-DHL4, SU-DHL6, SU-DHL8, and SU-DHL 10 were employed. To perform BH3 profiling, the ability of a panel of sensitizer peptides to induce mitochondrial outer membrane permeabilization (MOMP) in mitochondria isolated from the lymphoma cells were tested. […] MOMP was measured by quantifying cytochrome c release by ELISA.
SU-DHL4 and SU-DHL6 a “primed” phenotype, based on the sensitivity to sensitizer BH3 peptides. […] SU-DHL-10 responded poorly to both sensitizer and activator peptides, indicating the loss of the effector arm.

SU-DHL8 = test: as above; assay type: biochemical; conditions: SU-DHL-8
Text: as §4

[1] = test system: SU-DHL4, SU-DHL6, SU-DHL8, SU-DHL 10; test: Lymphoma cell line sensitivity to agents; assay type: cell-based; conditions: four lymphoma cell lines compared
Protocol: Only cells that are dependent on BCL-2 for survival are predicted to respond to BCL-2 antagonists like ABT-737. […] To test this, cells were treated with vincristine.

GST-MCL-1 = biological target: T2, GST-MCL-1 (Homo sapiens, UniProt Q07820); test: BIM BH3 displacement by fluorescence polarization; assay type: binding; conditions: 25 nM fluorescein-linked BIM BH3, 0.1 uM GST-MCL-1
T2 construct: In each case, the C-terminus transmembrane domain was truncated to maintain solubility in aqueous solution; made in house; host or cells: bacteria (construct a gift of Tilman Oltersdorf)
T2 sequence (Q07820 1-327): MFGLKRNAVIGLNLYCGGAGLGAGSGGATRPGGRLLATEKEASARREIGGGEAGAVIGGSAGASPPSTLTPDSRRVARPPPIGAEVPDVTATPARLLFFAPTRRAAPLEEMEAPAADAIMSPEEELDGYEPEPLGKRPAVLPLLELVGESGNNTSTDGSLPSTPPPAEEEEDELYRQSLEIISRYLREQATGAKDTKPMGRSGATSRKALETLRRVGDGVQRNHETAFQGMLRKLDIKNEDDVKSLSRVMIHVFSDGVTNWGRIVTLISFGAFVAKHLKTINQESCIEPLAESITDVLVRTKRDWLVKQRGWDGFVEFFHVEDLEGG
Protocol: as §2, §3

[2] = test system: FLAG-MCL-1-transfected 2B4 cells; test: BH3 peptides electroporated into dexamethasone-treated FLAG-MCL-1 2B4 cells; assay type: cell-based, murine; conditions: peptide transfected by electroporation
Text: Percent killing was ascertained by Annexin-V staining. […] N=3 and the error bars represent the standard deviation.

displacement of BIM BH3 from MCL-1 (GST-MCL-1) | Compound | cytochrome c release by peptide alone (mouse liver mitochondria) | displacement of BIM BH3 from BCL-2 (GST-BCL-2) | BAX oligomerization (BAX) | cytochrome c release (leukemic mitochondria) | cytochrome c release (CLL mitochondria) | mitochondrial sensitivity to BH3 peptide (SU-DHL6) | mitochondrial sensitivity to BH3 peptide (SU-DHL8) | cell sensitivity to the agent [1] | percent killing by Annexin-V staining [2]
– | CSCC[C@H](NC(=O)[C@H](CCCNC(=N)N)NC(=O)[C@H](CCCNC(=N)N)NC(=O)[C@H](CC(C)C)NC(=O)[C@H](CCC(=O)O)NC(=O)[C@H](CCCNC(=N)N)NC(=O)CNC(=O)[C@H](Cc1ccc(O)cc1)NC(=O)[C@H](CCCNC(=N)N)NC(=O)[C@H](CCC(N)=O)NC(=O)[C@H](C)NC(=O)[C@H](C)NC(=O)[C@H](Cc1c[nH]c2ccccc12)NC(=O)[C@H](CC(C)C)NC(=O)CCCCCNC(=S)Nc1ccc2c(c1)C(=O)OC21c2ccc(O)cc2Oc2cc(O)ccc21)C(=O)N[C@@H](CO)C(=O)N[C@@H](CC(=O)O)C(=O)N[C@@H](CCC(=O)O)C(=O)N[C@@H](Cc1ccccc1)C(=O)N[C@@H](CCC(=O)O)C(=O)NCC(=O)N[C@@H](CO)C(=O)N[C@@H](Cc1ccccc1)C(=O)N[C@@H](CCCCN)C(=O)NCC(=O)N[C@@H](CC(C)C)C(=O)O [BAD] | none of the sensitizer BH3 peptides by themselves can induce cytochrome c release significantly above background | efficiently displaces BIM BH3 from BCL-2 | results in BAX oligomerization | capable of inducing near total cytochrome c release | induce cytochrome c release | weaker, but definite, response | – | – | –
– | CC[C@H](C)[C@H](NC(=O)[C@H](CCC(=O)O)NC(=O)[C@H](CCCNC(=N)N)NC(=O)[C@H](C)NC(=O)[C@H](Cc1c[nH]c2ccccc12)NC(=O)[C@H](CCC(N)=O)NC(=O)[C@H](CCC(=O)O)NC(=O)CCCCCNC(=S)Nc1ccc2c(c1)C(=O)OC21c2ccc(O)cc2Oc2cc(O)ccc21)C(=O)NCC(=O)N[C@@H](C)C(=O)N[C@@H](CCC(N)=O)C(=O)N[C@@H](CC(C)C)C(=O)N[C@@H](CCCNC(=N)N)C(=O)N[C@@H](CCCNC(=N)N)C(=O)N[C@@H](CCSC)C(=O)N[C@@H](C)C(=O)N[C@@H](CC(=O)O)C(=O)N[C@@H](CC(=O)O)C(=O)N[C@@H](CC(C)C)C(=O)N[C@@H](CC(N)=O)C(=O)N[C@@H](C)C(=O)O [PUMA] | none of the sensitizer BH3 peptides by themselves can induce cytochrome c release significantly above background | – | – | capable of inducing near total cytochrome c release | induce cytochrome c release | strong | limited response | – | –
– | CC[C@]1(O)C[C@H]2CN(CCc3c([nH]c4ccccc34)[C@@](C(=O)OC)(c3cc4c(cc3OC)N(C=O)[C@H]3[C@@](O)(C(=O)OC)[C@H](OC(C)=O)[C@]5(CC)C=CCN6CC[C@]43[C@@H]65)C2)C1 [vincristine] | – | – | – | – | – | – | – | SU-DHL4 and SU-DHL6 were the most sensitive cell lines | –
efficiently displaces BIM from MCL-1 | BH3 domain peptide of murine NOXA, AELPPEFAAQLRKIGDKVYC (SEQ ID NO: 6) [NOXA A] | none of the sensitizer BH3 peptides by themselves can induce cytochrome c release significantly above background | – | – | – | do not | weaker, but definite, response | – | – | significantly greater than that with BAD
